Consider 8 compounds from ChEMBL document CHEMBL1201862, “PubChem BioAssay data set” (2004).

Test systems include A498; COLO 205; HCT-116; HT-29; K562; LOX IMVI; MDA-N; MOLT-4; NCI-H460; OVCAR-8; PC-3; RXF 393; SF-268; SK-MEL-2; SK-OV-3; SW-620; T47D; TK-10; UACC-62; U-251.
Common to all, as to experiment: growth of human tumour cells (NCI), 48 h

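Each compound was tested at five concentrations against cells in 96-well plates for 48 hours. At the GI50, growth is halved.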 Active and inactive are the calls of the source. Cut-off read from the data, not from the text of the source: active = GI50 up to about 1.1 µM and inactive = higher.

In the case of `CN(CCc1ccccn1)C(=S)N/N=C/c1ccccn1`, the GI50 in the test on A498 was 0.0194 µM (active); in the test with COLO 205, < 0.01 µM (active); with HCT-116, < 0.01 µM (active); in the test on HT-29 it was < 0.0473 µM (active); in the test with K562 it was < 0.01 µM (active); with LOX IMVI it was 0.07 µM (active). In addition, the GI50 is 0.551 µM (active) with MDA-N; < 0.01 µM (active) with MOLT-4; 0.299 µM (active) with NCI-H460; 0.0308 µM (active) in the test on OVCAR-8; 0.0456 µM (active) with PC-3; 0.126 µM (active) in the test on RXF 393. The GI50 in the test with SF-268 was 0.248 µM (active); in the test with SK-MEL-2, 0.0168 µM (active); in the test on SK-OV-3 it was 0.376 µM (active); in the test with SW-620, 0.0916 µM (active); in the test on T47D, < 0.01 µM (active); with TK-10 it was 0.043 µM (active). Besides, in the test on UACC-62, the GI50 is 0.195 µM (active).
Take `C[C@@H]1CC[C@]2(C)C3(C)CC[C@]2(OC3=O)[C@@]12CC(c1ccoc1)OC2=O` (some centres undefined): the GI50 in the test with A498 is > 100 µM (inactive); in the test on COLO 205 it was 19.3 µM (inactive); in the test with HCT-116 it was 17.5 µM (inactive); with HT-29, 54.7 µM (inactive); in the test with K562, 34 µM (inactive); in the test on LOX IMVI, 20.3 µM (inactive). Moreover, the GI50 in the test on MDA-N is 34.4 µM (inactive); in the test with MOLT-4 it was 31 µM (inactive); in the test with NCI-H460, 86.5 µM (inactive); with PC-3, 40.6 µM (inactive); in the test with RXF 393, 24.8 µM (inactive); in the test on SF-268 it was 37.2 µM (inactive). The GI50 in the test on SK-MEL-2 was 58.6 µM (inactive); in the test on SK-OV-3, > 100 µM (inactive); in the test with SW-620 it was 26.9 µM (inactive); in the test on T47D, > 100 µM (inactive); in the test with TK-10, 39 µM (inactive); with U-251, 44.5 µM (inactive). The GI50 with UACC-62 is 61.4 µM (inactive).
For `Cc1c(C#N)c(N)n(C2OCC(O)C(O)C2O)c(=S)c1C#N` (centres undefined), the GI50 with A498, in the test with HT-29, with K562, in the test with LOX IMVI, in the test on MDA-N and with MOLT-4 was > 100 µM (inactive) throughout. In addition, the GI50 with NCI-H460 is > 100 µM (inactive); in the test with OVCAR-8 it was > 100 µM (inactive); with PC-3, > 100 µM (inactive); in the test with RXF 393, > 100 µM (inactive); with SF-268 it was > 100 µM (inactive); in the test with SK-MEL-2, 21.4 µM (inactive). Besides, the GI50 with SK-OV-3, in the test with SW-620, in the test on T47D, in the test with TK-10 and in the test on UACC-62 was > 100 µM (inactive) throughout.
Take `O=C1c2c(ccc3c2CCCC3)CC12Cc1ccc3c(c1C2=O)CCCC3`: the GI50 is 89.1 µM (inactive) in the test with A498; 77.4 µM (inactive) in the test with HCT-116; > 100 µM (inactive) in the test on HT-29; > 100 µM (inactive) in the test on K562; > 100 µM (inactive) in the test with LOX IMVI; > 100 µM (inactive) with MDA-N. The GI50 in the test on MOLT-4, with NCI-H460, in the test with OVCAR-8, with PC-3, in the test on RXF 393 and in the test on SF-268 was > 100 µM (inactive) throughout. The GI50 in the test with SK-MEL-2 is > 100 µM (inactive); in the test on SK-OV-3 it was > 100 µM (inactive); with SW-620, > 100 µM (inactive); in the test on T47D it was > 100 µM (inactive); in the test with TK-10, > 100 µM (inactive); with U-251, 56.9 µM (inactive).
For the compound `O=c1[nH]c2ccc(C(F)(F)F)cc2nc1C(F)(F)F`, the GI50 in the test on A498 is 25.7 µM (inactive); with COLO 205, 17.1 µM (inactive); with HCT-116 it was 20.9 µM (inactive); in the test with HT-29 it was 29.2 µM (inactive); with K562, 35.7 µM (inactive); with LOX IMVI, 20.7 µM (inactive). The GI50 in the test on MDA-N was 35.7 µM (inactive); in the test with MOLT-4, 23.4 µM (inactive); in the test on NCI-H460, 33.9 µM (inactive); in the test on OVCAR-8, 25.3 µM (inactive); with PC-3, 23.3 µM (inactive); in the test on RXF 393 it was 5 µM (inactive). The GI50 with SF-268 was 30.8 µM (inactive); with SK-MEL-2, 15 µM (inactive); in the test on SK-OV-3, 27.1 µM (inactive); in the test with T47D, 13.2 µM (inactive); with TK-10, 27.9 µM (inactive); with U-251 it was 35 µM (inactive). For the same compound, the GI50 with UACC-62 was 27.9 µM (inactive).
`COC(=O)CCC(C)[C@H]1CCC2C3C(C[C@H](OC(C)=O)[C@@]21C)[C@@]1(C)CCC2(C[C@H]1C[C@H]3OC(C)=O)OOC1(CCCCC1)OO2` (some centres undefined): the GI50 was > 100 µM (inactive) with A498; 24.7 µM (inactive) with COLO 205; 5.58 µM (inactive) with HCT-116; 41.9 µM (inactive) with HT-29; 10.3 µM (inactive) with K562; 11.5 µM (inactive) in the test with LOX IMVI. Also, the GI50 in the test with MDA-N was 33.9 µM (inactive); in the test on MOLT-4, 17.2 µM (inactive); in the test on NCI-H460, 10.8 µM (inactive); in the test with OVCAR-8, 17.6 µM (inactive); with PC-3, 5.97 µM (inactive); with RXF 393, 38.7 µM (inactive). Moreover, the GI50 with SF-268 is 25 µM (inactive); in the test on SK-MEL-2, 52.7 µM (inactive); in the test with SK-OV-3, 54.5 µM (inactive); in the test on SW-620, 33.3 µM (inactive); with T47D, 65.9 µM (inactive); in the test on TK-10 it was > 100 µM (inactive). Also, the GI50 in the test with U-251 was 12.7 µM (inactive).
Turning to `NC(=O)C1CCCNC1` (centres undefined), the GI50 with A498, in the test on COLO 205, in the test on HCT-116, with HT-29, with LOX IMVI and in the test with MDA-N was > 100 µM (inactive) each time. The GI50 is 24.3 µM (inactive) with MOLT-4; > 100 µM (inactive) in the test on NCI-H460; > 100 µM (inactive) with OVCAR-8; > 100 µM (inactive) in the test with PC-3; > 100 µM (inactive) with RXF 393; > 100 µM (inactive) in the test with SF-268. Moreover, the GI50 in the test with SK-MEL-2, in the test on SK-OV-3, in the test with SW-620, in the test on T47D, in the test on TK-10 and in the test on U-251 was > 100 µM (inactive) in each case. The GI50 in the test on UACC-62 was > 100 µM (inactive).
Turning to `CC(=O)c1csc2c1C(=O)c1ccccc1C2=O`, the GI50 was 46.7 µM (inactive) with A498; 1.74 µM (inactive) in the test with COLO 205; 2.24 µM (inactive) in the test with HCT-116; 2.02 µM (inactive) in the test with HT-29; 3.92 µM (inactive) in the test with K562; 2.36 µM (inactive) with LOX IMVI. Besides, the GI50 with MDA-N is 1.22 µM (inactive); in the test with NCI-H460 it was 1.48 µM (inactive); with OVCAR-8, 2.51 µM (inactive); in the test with PC-3 it was 7.57 µM (inactive); in the test on RXF 393, 10.2 µM (inactive); in the test with SF-268, 2.78 µM (inactive). Also, the GI50 with SK-MEL-2 was 3.06 µM (inactive); with SK-OV-3 it was 38.1 µM (inactive); in the test on SW-620, 2.2 µM (inactive); in the test on T47D, 21.7 µM (inactive); with TK-10, 1.79 µM (inactive); with U-251 it was 2.88 µM (inactive). Also, the GI50 with UACC-62 is 1.93 µM (inactive).
